Test results published in ChEMBL document CHEMBL4842359, “1,3-Diarylpyrazolyl-acylsulfonamides as Potent Anti-tuberculosis Agents Targeting Cell Wall Biosynthesis in Mycobacterium tuberculosis” (J Med Chem, 2021).
Values after ≈ are worked out from the molar mass of the structure shown.

Tests used:
Test in all cases: microbe, parasite or virus in culture
[1] = system: Mycobacterium tuberculosis; conditions: 336 h
[2] = system: Mycobacterium tuberculosis; conditions: MD55
[3] = system: Mycobacterium tuberculosis; conditions: MD96
[4] = system: Mycobacterium tuberculosis; conditions: R88
[5] = system: Mycobacterium tuberculosis; conditions: R296
[6] = system: Mycobacterium tuberculosis; conditions: R3027

CS(=O)(=O)NC(=O)NCc1cn(-c2ccc(Cl)cc2)nc1-c1ccncc1
MIC [1]: < 0.12 µM

CS(=O)(=O)NC(=O)CCc1cn(-c2ccc(Br)cc2)nc1-c1ccncc1
MIC [2]: 60 µM (≈ 27 µg/mL) | MIC [3]: ≤ 30 µM | MIC [4]: 30 µM (≈ 13.5 µg/mL) | MIC [5]: 60 µM (≈ 27 µg/mL) | MIC [6]: 60 µM (≈ 27 µg/mL)

CS(=O)(=O)NC(=O)NCc1cc(-c2ccc(Br)cc2)oc1-c1ccncc1
MIC [1]: < 0.13 µM

CS(=O)(=O)NC(=O)CCc1cn(-c2ccc(Cl)cc2)nc1-c1ccc(Cl)cc1
MIC [1]: 0.24 µM (≈ 0.105 µg/mL)

CS(=O)(=O)NC(=O)CCc1cn(-c2ccc(Br)cc2)nc1-c1ccc(Cl)cc1
MIC [1]: 0.4 µM (≈ 0.193 µg/mL)

NNC(=O)c1ccncc1 [ISONIAZID]
MIC [1]: 31.2 µM (≈ 4.28 µg/mL)

CO[C@H]1/C=C/O[C@@]2(C)Oc3c(C)c(O)c4c(O)c(c(/C=N/N5CCN(C)CC5)c(O)c4c3C2=O)NC(=O)/C(C)=C\C=C\[C@H](C)[C@H](O)[C@@H](C)[C@@H](O)[C@@H](C)[C@H](OC(C)=O)[C@@H]1C [RIFAMPIN]
MIC [1]: 0.001 µM (≈ 0.000823 µg/mL)
